Experimental data: EPA's ToxValDB 9.5

Test system: Rattus norvegicus
Conditions: short-term, duration: 28 days, oral, gavage, Sprague-Dawley

For `O=S(=O)(O)C(F)(F)C(F)(F)C(F)(F)C(F)(F)C(F)(F)C(F)(F)C(F)(F)C(F)(F)F` [Perfluorooctanesulfonic acid], the LOEL (F, Nonneoplastic effects_Liver - Hepatocyte, hypertrophy) was 1.25 mg/kg-day, the NOEL (F, Nonneoplastic effects_Liver - Hepatocyte, vacuolization cytoplasmic) was 5 mg/kg-day and the NOEL (F, Nonneoplastic effects_Liver - Necrosis) was 5 mg/kg-day. For the same compound, the NOEL (F, Nonneoplastic effects_Nose - Olfactory epithelium, degeneration) was 5 mg/kg-day, the NOEL (F, Nonneoplastic effects_Nose - Olfactory epithelium, hyperplasia) was 5 mg/kg-day and the NOEL (F, Nonneoplastic effects_Nose - Olfactory epithelium, inflammation, suppurative) was 5 mg/kg-day. The NOEL (F, Nonneoplastic effects_Nose - Olfactory epithelium, necrosis) was 5 mg/kg-day, the LOEL (F, Nonneoplastic effects_Spleen - Extramedullary hematopoiesis, decreased) was 1.25 mg/kg-day and the NOEL (F, Nonneoplastic effects_Stomach, forestomach - Epithelium, hyperplasia) was 5 mg/kg-day. The NOEL (F, Nonneoplastic effects_Thymus - Atrophy) was 5 mg/kg-day, the LOEL (F, Organ weights_Heart - Absolute) was 5 mg/kg-day and the LOEL (F, Organ weights_Heart - Relative) was 5 mg/kg-day. For the same compound, the LOEL (F, Organ weights_Liver - Absolute) was 0.312 mg/kg-day, the LOEL (F, Organ weights_Liver - Relative) was 0.312 mg/kg-day and the NOEL (F, Organ weights_Lung - Absolute) was 5 mg/kg-day. The LOEL (F, Organ weights_Lung - Relative) was 1.25 mg/kg-day, the NOEL (F, Organ weights_R. adrenal gland - Absolute) was 5 mg/kg-day and the NOEL (F, Organ weights_R. adrenal gland - Relative) was 5 mg/kg-day. For the same compound, the NOEL (F, Organ weights_R. kidney - Absolute) was 5 mg/kg-day, the NOEL (F, Organ weights_R. kidney - Relative) was 5 mg/kg-day and the NOEL (F, Organ weights_Spleen - Absolute) was 5 mg/kg-day. It also gave an NOEL (F, Organ weights_Spleen - Relative) of 5 mg/kg-day, an LOEL (F, Organ weights_Thymus - Absolute) of 1.25 mg/kg-day and an NOEL (F, Organ weights_Thymus - Relative) of 5 mg/kg-day. For the same compound, the NOEL (F, Survival rates) was 5 mg/kg-day, the LOEL (M, Clinical chemistry_Alanine aminotransferase) was 0.625 mg/kg-day and the LOEL (M, Clinical chemistry_Albumin) was 5 mg/kg-day. The LOEL (M, Clinical chemistry_Albumin/globulin ratio) was 5 mg/kg-day, the LOEL (M, Clinical chemistry_Alkaline phosphatase) was 0.625 mg/kg-day and the LOEL (M, Clinical chemistry_Aspartate aminotransferase) was 0.625 mg/kg-day. For the same compound, the LOEL (M, Clinical chemistry_Cholesterol) was 0.312 mg/kg-day, the LOEL (M, Clinical chemistry_Direct bilirubin) was 5 mg/kg-day and the LOEL (M, Clinical chemistry_Free thyroxine) was 0.312 mg/kg-day. The LOEL (M, Clinical chemistry_Globulin) was 5 mg/kg-day, the NOEL (M, Clinical chemistry_Sorbitol dehydrogenase) was 5 mg/kg-day and the NOEL (M, Clinical chemistry_Testosterone) was 5 mg/kg-day. The NOEL (M, Clinical chemistry_Thyroid stimulating hormone) was 5 mg/kg-day, the LOEL (M, Clinical chemistry_Total bile acids) was 5 mg/kg-day and the NOEL (M, Clinical chemistry_Total bilirubin) was 5 mg/kg-day. For the same compound, the NOEL (M, Clinical chemistry_Total protein) was 5 mg/kg-day, the LOEL (M, Clinical chemistry_Total thyroxine) was 0.312 mg/kg-day and the LOEL (M, Clinical chemistry_Total triiodothyronine) was 0.625 mg/kg-day. The LOEL (M, Clinical chemistry_Triglycerides) was 5 mg/kg-day, the LOEL (M, Gene expression_Acox1) was 1.25 mg/kg-day and the LOEL (M, Gene expression_Acyl-CoA oxidase) was 2.5 mg/kg-day. For the same compound, the LOEL (M, Gene expression_Cyp2b1) was 0.312 mg/kg-day, the LOEL (M, Gene expression_Cyp2b2) was 0.312 mg/kg-day and the LOEL (M, Gene expression_Cyp4a1) was 0.312 mg/kg-day. The NOEL (M, Hematology_Erythrocytes) was 5 mg/kg-day, the NOEL (M, Hematology_Hematocrit) was 5 mg/kg-day and the NOEL (M, Hematology_Hemoglobin) was 5 mg/kg-day. It also gave an LOEL (M, Hematology_Leukocytes) of 5 mg/kg-day, an LOEL (M, Hematology_Reticulocytes) of 2.5 mg/kg-day and an LOEL (M, Hematology_S. neutrophils) of 5 mg/kg-day. It also gave an LOEL (M, Nonneoplastic effects_Bone marrow - Hypocellularity) of 1.25 mg/kg-day, an NOEL (M, Nonneoplastic effects_Kidney - Papilla, necrosis) of 5 mg/kg-day and an NOEL (M, Nonneoplastic effects_Liver - Hepatocyte, cytoplasmic alteration) of 5 mg/kg-day. The LOEL (M, Nonneoplastic effects_Liver - Hepatocyte, hypertrophy) was 1.25 mg/kg-day, the LOEL (M, Nonneoplastic effects_Liver - Hepatocyte, vacuolization cytoplasmic) was 2.5 mg/kg-day and the NOEL (M, Nonneoplastic effects_Liver - Necrosis) was 5 mg/kg-day. It also gave an NOEL (M, Nonneoplastic effects_Nose - Olfactory epithelium, degeneration) of 5 mg/kg-day, an NOEL (M, Nonneoplastic effects_Nose - Olfactory epithelium, hyperplasia) of 5 mg/kg-day and an NOEL (M, Nonneoplastic effects_Nose - Olfactory epithelium, inflammation, suppurative) of 5 mg/kg-day. It also gave an NOEL (M, Nonneoplastic effects_Nose - Olfactory epithelium, necrosis) of 5 mg/kg-day, an LOEL (M, Nonneoplastic effects_Spleen - Extramedullary hematopoiesis, decreased) of 1.25 mg/kg-day and an NOEL (M, Nonneoplastic effects_Stomach, forestomach - Epithelium, hyperplasia) of 5 mg/kg-day. It also gave an NOEL (M, Nonneoplastic effects_Thymus - Atrophy) of 5 mg/kg-day, an LOEL (M, Organ weights_Heart - Absolute) of 5 mg/kg-day and an NOEL (M, Organ weights_Heart - Relative) of 5 mg/kg-day. It also gave an LOEL (M, Organ weights_Liver - Absolute) of 0.312 mg/kg-day, an LOEL (M, Organ weights_Liver - Relative) of 0.312 mg/kg-day and an NOEL (M, Organ weights_Lung - Absolute) of 5 mg/kg-day. It also gave an NOEL (M, Organ weights_Lung - Relative) of 5 mg/kg-day, an LOEL (M, Organ weights_R. adrenal gland - Absolute) of 1.25 mg/kg-day and an NOEL (M, Organ weights_R. adrenal gland - Relative) of 5 mg/kg-day. For the same compound, the NOEL (M, Organ weights_R. kidney - Absolute) was 5 mg/kg-day, the NOEL (M, Organ weights_R. kidney - Relative) was 5 mg/kg-day and the LOEL (M, Organ weights_Spleen - Absolute) was 1.25 mg/kg-day. For the same compound, the NOEL (M, Organ weights_Spleen - Relative) was 5 mg/kg-day, the LOEL (M, Organ weights_Thymus - Absolute) was 5 mg/kg-day and the LOEL (M, Organ weights_Thymus - Relative) was 5 mg/kg-day. For the same compound, the NOEL (M, Reproductive toxicity_Altered sperm parameters) was 5 mg/kg-day and the NOEL (M, Survival rates) was 5 mg/kg-day.
